The NIST ThermoML archive (doi:10.1021/je1004966)
± gives the expanded uncertainty stated by the source.

Details: Crystal; DTA

Normal melting temperature: 86.0 ± 1 °C
SMILES: Cl.Cn1ccnc1 [1-methylimidazolium chloride]
